These results are taken from patent publication US12590062B2, “PD-1/PD-L1 inhibitors” (Gilead Sciences, Inc., priority 2017, dated 2026).

Assay [1] addresses PD-1/PD-L1 (Homo sapiens, UniProt Q9NZQ7). Briefly: PD-1/PD-L1 biochemical protein-protein interaction assay (ALPHA). The assay is classed as binding. Particulars: 0.3 nM His tagged PD-L1, 2.5 nM biotinylated Fc-PD-1, 60 minutes at 25° C., read-out: IC50 PD-L1-PD-1 Alpha IC50-mono PD-L1-fcP-D1. The method in brief:
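Extracellular-domain binding of His-tagged PD-L1 (0.3 nM final) to biotinylated Fc-PD-1 (2.5 nM final) was measured by ALPHA in 25 mM Hepes pH 7.4, 150 mM NaCl, 3.4 mM EDTA, 0.005% Tween 20, 0.01% BSA. After 60 min at 25° C, anti-His acceptor and streptavidin donor beads were added; IC50 from four-parameter fits.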

The target in assay [2] is T1, PD-1/PD-L1 interaction (Homo sapiens, UniProt Q9NZQ7).
T1 construct: expressed in transfected cells; host or cells: CHO cells (aAPC-PD-L1) co-cultured with Jurkat cells overexpressing PD-1 and an NFAT-luciferase reporter
The experiment in a line: PD-1/PD-L1 NFAT reporter co-culture assay. Particulars: Jurkat PD-1 NFAT-luciferase cells co-cultured with aAPC-PD-L1 CHO cells, 6 hrs at 37° C.; read-out: EC50 NFAT Luciferase. The format is cell-based. In a few lines: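 Luminescence (ONE-Glo) after 6 h, 37 °C co-culture reports NFAT-luciferase in PD-1 Jurkat cells, which PD-1/PD-L1 engagement suppresses. Partner cells: CHO expressing anti-CD3 and PD-L1. EC50 from four-parameter dose-response fit.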

A word on the IC50: it is the concentration that gives 50% inhibition. A word on the EC50: it is the concentration giving half of the maximal effect.

A value given as a limit tells only on which side of the number the result lay.

T1 sequence (Q9NZQ7 19-290): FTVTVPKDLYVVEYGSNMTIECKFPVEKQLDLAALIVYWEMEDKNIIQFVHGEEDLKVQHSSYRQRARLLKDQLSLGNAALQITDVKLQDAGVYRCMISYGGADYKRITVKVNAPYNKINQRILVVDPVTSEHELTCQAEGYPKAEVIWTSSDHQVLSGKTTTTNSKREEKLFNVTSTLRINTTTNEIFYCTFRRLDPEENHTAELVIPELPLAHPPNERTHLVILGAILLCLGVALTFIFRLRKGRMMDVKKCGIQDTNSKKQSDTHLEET
Sequence of PD-1/PD-L1 (Q9NZQ7 19-238 limits assumed): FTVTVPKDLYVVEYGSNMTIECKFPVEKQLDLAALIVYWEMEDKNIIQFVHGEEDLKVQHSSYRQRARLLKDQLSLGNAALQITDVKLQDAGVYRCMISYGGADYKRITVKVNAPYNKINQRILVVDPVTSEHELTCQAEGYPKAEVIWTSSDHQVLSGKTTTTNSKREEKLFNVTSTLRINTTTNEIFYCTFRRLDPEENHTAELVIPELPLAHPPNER

Consider `C=Cc1cc(CNC[C@@H](O)CC(=O)O)c(OC)nc1OCc1cccc(-c2cccc(COc3nc(OC)c(CNC[C@@H](O)CC(=O)O)cc3C=C)c2C)c1C` [Example 120, (3S,3′S)-4,4′-((((((2,2′-dimethyl-[1,1′-biphenyl]-3,3′-diyl)bis(methylene))bis(oxy))bis(2-methoxy-5-vinylpyridine-6,3-diyl))bis(methylene))bis(azanediyl))bis(3-hydroxybutanoic acid)], for which, in assay [1], the IC50 came out at 2 nM. In addition, the EC50 in assay [2] amounted to 1300 nM.
The corresponding values for `Cc1c(COc2nc(OCc3cncs3)c(CNC[C@@H](O)CC(=O)O)cc2Br)cccc1-c1cccc(COc2nc(OCc3cncs3)c(CNC[C@@H](O)CC(=O)O)cc2Br)c1C` [Example 138, (3S,3′S)-4,4′-((((((2,2′-dimethyl-[1,1′-biphenyl]-3,3′-diyl)bis(methylene))bis(oxy))bis(5-bromo-2-(thiazol-5-ylmethoxy)pyridine-6,3-diyl))bis(methylene))bis(azanediyl))bis(3-hydroxybutanoic acid)] are 1 nM and 392 nM.
The corresponding values for `Cc1c(COc2nc(OCc3cnnn3Cc3ccccc3)c(CNC[C@@H](O)CC(=O)O)cc2Br)cccc1-c1cccc(COc2nc(OCc3cnnn3Cc3ccccc3)c(CNC[C@@H](O)CC(=O)O)cc2Br)c1C` [Example 139, (3S,3′S)-4,4′-((((((2,2′-dimethyl-[1,1′-biphenyl]-3,3′-diyl)bis(methylene))bis(oxy))bis(2-((1-benzyl-1H-1,2,3-triazol-5-yl)methoxy)-5-bromopyridine-6,3-diyl))bis(methylene))bis(azanediyl))bis(3-hydroxybutanoic acid)] are 5.1 nM and 23900 nM.
The matching figures for `Cc1c(COc2nc(OCC3CC3)c(CNC[C@@H](O)CC(=O)O)cc2Br)cccc1-c1cccc(COc2nc(OCC3CC3)c(CNC[C@@H](O)CC(=O)O)cc2Br)c1C` [Example 141, (3S,3′S)-4,4′-((((((2,2′-dimethyl-[1,1′-biphenyl]-3,3′-diyl)bis(methylene))bis(oxy))bis(5-bromo-2-(cyclopropylmethoxy)pyridine-6,3-diyl))bis(methylene))bis(azanediyl))bis(3-hydroxybutanoic acid)]: 3.6 nM and no less than 50000 nM.
As to `COC(=O)COc1nc(OCc2cccc(-c3cccc(COc4nc(OCC(=O)OC)c(CNC[C@@H](O)CC(=O)O)cc4Br)c3C)c2C)c(Br)cc1CNC[C@@H](O)CC(=O)O` [Example 150, (3S,3′S)-4,4′-((((((2,2′-dimethyl-[1,1′-biphenyl]-3,3′-diyl)bis(methylene))bis(oxy))bis(5-bromo-2-(2-methoxy-2-oxoethoxy)pyridine-6,3-diyl))bis(methylene))bis(azanediyl))bis(3-hydroxybutanoic acid)], the IC50 in assay [1] was found to be 0.5 nM. The EC50 in assay [2] is no less than 50000 nM.
The corresponding values for `C=CCOc1nc(OCc2cccc(-c3cccc(COc4nc(OCC=C)c(CNC[C@@H](O)CC(=O)O)cc4Br)c3C)c2C)c(Br)cc1CNC[C@@H](O)CC(=O)O` [Example 151, (3S,3′S)-4,4′-((((((2,2′-dimethyl-[1,1′-biphenyl]-3,3′-diyl)bis(methylene))bis(oxy))bis(2-(allyloxy)-5-bromopyridine-6,3-diyl))bis(methylene))bis(azanediyl))bis(3-hydroxybutanoic acid)] are 2.2 nM and no less than 50000 nM.
Take `Cc1c(COc2nc(OCC(F)(F)F)c(CNC[C@@H](O)CC(=O)O)cc2Br)cccc1-c1cccc(COc2nc(OCC(F)(F)F)c(CNC[C@@H](O)CC(=O)O)cc2Br)c1C` [Example 154, (3S,3′S)-4,4′-((((((2,2′-dimethyl-[1,1′-biphenyl]-3,3′-diyl)bis(methylene))bis(oxy))bis(5-bromo-2-(2,2,2-trifluoroethoxy)pyridine-6,3-diyl))bis(methylene))bis(azanediyl))bis(3-hydroxybutanoic acid)]: the IC50 in assay [1] was determined as 3.8 nM. For the same compound, the EC50 in assay [2] was no less than 50000 nM.
The corresponding values for `Cc1nc(OCc2cccc(-c3cccc(COc4ccc(CNC[C@@H](O)CC(=O)O)c(C)n4)c3C)c2C)ccc1CNC[C@@H](O)CC(=O)O` [Example 156, (3S,3′S)-4,4′-((((((2,2′-dimethyl-[1,1′-biphenyl]-3,3′-diyl)bis(methylene))bis(oxy))bis(2-methylpyridine-6,3-diyl))bis(methylene))bis(azanediyl))bis(3-hydroxybutanoic acid)] are 2.3 nM and 34200 nM.
Turning to `Cc1c(COc2ccc(CNC[C@@H](O)CC(=O)O)c(OCCN3CCOCC3)n2)cccc1-c1cccc(COc2ccc(CNC[C@@H](O)CC(=O)O)c(OCCN3CCOCC3)n2)c1C` [Example 158, (3S,3′S)-4,4′-((((((2,2′-dimethyl-[1,1′-biphenyl]-3,3′-diyl)bis(methylene))bis(oxy))bis(2-(2-morpholinoethoxy)pyridine-6,3-diyl))bis(methylene))bis(azanediyl))bis(3-hydroxybutanoic acid)], the IC50 in assay [1] stood at 2 nM. Moreover, in assay [2], the EC50 is 28100 nM.
The corresponding values for `Cc1c(COc2cc(OCc3cncc(C#N)c3)c(CNC[C@@H](O)C(=O)O)cc2Cl)cccc1-c1cccc(COc2cc(OCc3cncc(C#N)c3)c(CNC[C@@H](O)C(=O)O)cc2Cl)c1C` [Example 161, (2R,2′R)-3,3′-((((((2,2′-dimethyl-[1,1′-biphenyl]-3,3′-diyl)bis(methylene))bis(oxy))bis(5-chloro-2-((5-cyanopyridin-3-yl)methoxy)-4,1-phenylene))bis(methylene))bis(azanediyl))bis(2-hydroxypropanoic acid)] are 2.8 nM and 310 nM.
The matching figures for `Cc1c(COc2cc(OCc3cncc(C#N)c3)c(CNCc3nnn[nH]3)cc2Cl)cccc1-c1cccc(COc2cc(OCc3cncc(C#N)c3)c(CNCc3nnn[nH]3)cc2Cl)c1C` [Example 163, 5,5′-((((((2,2′-dimethyl-[1,1′-biphenyl]-3,3′-diyl)bis(methylene))bis(oxy))bis(6-((((1H-tetrazol-5-yl)methyl)amino)methyl)-4-chloro-3,1-phenylene))bis(oxy))bis(methylene))dinicotinonitrile]: 0.6 nM and 343 nM.
The corresponding values for `Cc1c(COc2cc(OCc3cncc(C#N)c3)c(CNCCCC(=O)O)cc2Cl)cccc1-c1cccc(COc2cc(OCc3cncc(C#N)c3)c(CNCCCC(=O)O)cc2Cl)c1C` [Example 164, 4,4′-((((((2,2′-dimethyl-[1,1′-biphenyl]-3,3′-diyl)bis(methylene))bis(oxy))bis(5-chloro-2-((5-cyanopyridin-3-yl)methoxy)-4,1-phenylene))bis(methylene))bis(azanediyl))dibutyric acid] are 0.2 nM and 500 nM.
For `Cc1c(COc2ccc(CNC[C@@H](O)CC(=O)O)cc2C#N)cccc1-c1cccc(COc2ccc(CNC[C@@H](O)CC(=O)O)cc2C#N)c1C` [Example 177, (3S,3′S)-4,4′-((((((2,2′-dimethyl-[1,1′-biphenyl]-3,3′-diyl)bis(methylene))bis(oxy))bis(3-cyano-4,1-phenylene))bis(methylene))bis(azanediyl))bis(3-hydroxybutanoic acid)], in assay [1], the IC50 amounted to 0.1 nM. Further, the EC50 in assay [2] is 20600 nM.
As to `COc1cc(C(=O)N2CCc3c(-c4cccc5c4CCN5C(=O)c4ccc(CNC[C@@H](O)CC(=O)O)c(OC)c4)cccc32)ccc1CNC[C@@H](O)CC(=O)O` [Example 180, (3S,3′S)-4,4′-(((([4,4′-biindoline]-1,1′-dicarbonyl)bis(2-methoxy-4,1-phenylene))bis(methylene))bis(azanediyl))bis(3-hydroxybutanoic acid)], the IC50 in assay [1] stood at 4.6 nM. Besides, the EC50 in assay [2] is 24800 nM.
In the case of `O=C(O)C[C@H](O)CNCc1ccc(C(=O)N2CCc3c(-c4cccc5c4CCN5C(=O)c4ccc(CNC[C@@H](O)CC(=O)O)cc4)cccc32)cc1` [Example 181, (3S,3′S)-4,4′-(((([4,4′-biindoline]-1,1′-dicarbonyl)bis(4,1-phenylene))bis(methylene))bis(azanediyl))bis(3-hydroxybutanoic acid)], the IC50 in assay [1] is 3.3 nM. Further, in assay [2], the EC50 is 30900 nM.
The matching figures for `COc1nc(OCc2cccc(-c3cccc(COc4ccc(CNCCO)c(OC)n4)c3Cl)c2Cl)ccc1CNCCO` [Example 186, 2,2′-((((((2,2′-Dichloro-[1,1′-biphenyl]-3,3′-diyl)bis(methylene))bis(oxy))bis(2-methoxypyridine-6,3-diyl))bis(methylene))bis(azanediyl))bis(ethan-1-ol)]: 18.8 nM and 1510 nM.
The corresponding values for `COc1nc(OCc2cccc(-c3cccc(COc4ccc(CNC[C@@H](O)CC(=O)O)c(OC)n4)c3Cl)c2Cl)ccc1CNC[C@@H](O)CC(=O)O` [Example 187, (3S,3′S)-4,4′-((((((2,2′-Dichloro-[1,1′-biphenyl]-3,3′-diyl)bis(methylene))bis(oxy))bis(2-methoxypyridine-6,3-diyl))bis(methylene))bis(azanediyl))bis(3-hydroxybutanoic acid)] are 0.6 nM and 3200 nM.
